Test: method code SF-AS, from DOI: 10.1021/acs.jmedchem.6b01691, PMID: 28051859

Row | logP | Structure (SMILES)
1 | 3.01 | CSc1ccc(C)cc1
2 | 2.47 | Fc1ccc(OC(F)F)cc1
3 | 2.54 | O=[N+]([O-])c1ccc(SC(F)F)cc1
4 | 3.11 | COc1ccc(SC(F)F)cc1
5 | 2.79 | COc1cccc(C(F)(F)F)c1
6 | 3.24 | FC(F)Sc1ccc(Cl)cc1
7 | 2.64 | CSc1ccc([N+](=O)[O-])cc1
8 | 2.96 | FC(F)Sc1ccc(Br)cc1
9 | 3.41 | Cc1ccc(SC(F)F)cc1
10 | 2.87 | COc1ccc(C(F)(F)F)cc1
11 | 2.89 | FC(F)Sc1ccccc1
12 | 2.6 | CSc1ccccc1
13 | 2.35 | COc1ccc(OC(F)F)cc1
14 | 2.77 | CSc1ccc(F)cc1
15 | 2.66 | COc1ccc(SC)cc1
16 | 1.98 | O=[N+]([O-])c1ccc(OC(F)F)cc1
17 | 2.69 | FC(F)Oc1cccc(C(F)(F)F)c1
18 | 2.14 | COc1ccc(F)cc1
19 | 2.43 | COc1cccc(F)c1
20 | 3.01 | CSc1ccc(Cl)cc1
21 | 2.88 | Cc1ccc(OC(F)F)cc1
22 | 2.69 | COc1ccc(C(=O)c2ccccc2)cc1
23 | 2.92 | Fc1ccc(SC(F)F)cc1
24 | 2.42 | CC(=O)Nc1ccc(SC(F)F)cc1
25 | 2.78 | CSc1ccc(Br)cc1
26 | 2.59 | Fc1cccc(OC(F)F)c1
27 | 2.87 | Cc1cccc(OC(F)F)c1
28 | 2.56 | COc1ccc(C)cc1
29 | 2.76 | FC(F)Oc1ccc(C(F)(F)F)cc1

Reference: the SangsterLogP compilation
